Measured values as given in patent publication US20140294967A1, “STABLE NANOCOMPOSITION COMPRISING PACLITAXEL, PROCESS FOR THE PREPARATION THEREOF, ITS USE AND PHARMACEUTICAL COMPOSITIONS CONTAINING IT” (BBS Nanotechnology Llc., priority 2013, published 2014).

Key:
[1] = system: SK-OV-3 human ovary adenocarcinoma cells; test: comparative efficacy study in SK-OV-3 s.c. xenograft SCID mouse model of ovary cancer; format: in vivo, SCID mice; settings: 5 mg/kg
Description: (§1) The table above illustrates the comparative efficacy study in SK-OV-3 s.c. xenograft SCID mouse model of ovary cancer. Tumor was induced in mice by implanting SK-OV-3 human ovary adenocarcinoma cells s.c. in upper region of back of SCID mice and allowing the tumors to develop to appreciable size over 24 days (70 mm3). The comparative efficacy study of six i.v. injection (day 24, 31, 38, 44, 51 and 58) of 5% glucose, paclitaxel (PACL) 5 mg/kg, NP-PACL 5 mg/kg and NP-PACL-OCT 1.7 mg/kg) was evaluated over 72 days. In this table there are: change in tumor volume of mice on 62nd day after tumor inoculation (data represent mean %±SEM of five mice per group), change in body weight of mice on 62nd day after tumor inoculation (Data represent mean±STDEV of five mice per group) and survival proportion at the end of the experiment.

[2] = body weight of mice during the SK-OV-3 xenograft efficacy study; format: in vivo, SCID mice; settings: 5 mg/kg, six i.v. injections; 62nd day after tumor inoculation; mean ± STDEV of five mice
Description: as §1

CC(=O)O[C@H]1C(=O)[C@@]2(C)[C@H]([C@H](OC(=O)c3ccccc3)[C@]3(O)C[C@H](OC(=O)[C@H](O)[C@@H](NC(=O)c4ccccc4)c4ccccc4)C(C)=C1C3(C)C)[C@]1(OC(C)=O)CO[C@@H]1C[C@@H]2O [PACL, (2α,4α,5β,7β,10β,13α)-4,10-bis(acetyloxy)-13-{[(2R,3S)-3-(benzoylamino)-2-hydroxy-3-phenylpropanoyl]oxy}-1,7-dihydroxy-9-oxo-5,20-epoxytax-11-en-2-yl benzoate]
Change in tumor volume (control: 100%) ([1]; six i.v. injections (day 24, 31, 38, 44, 51, 58), 62nd day after tumor inoculation, mean % ± SEM of five mice): 86% ± 13% | Survival proportion at the end of the experiment ([1]; six i.v. injections, evaluated over 72 days, five mice per group): 60% | Change in body weight during the treatment (weight at start: 100%) [2]: 99% ± 5%
